Key:
[1] = test system: ABUTH (Abutilon theophrasti); assay: Postemergence herbicidal evaluation; assay type: in vivo, Medic.
Summary of the method: (§1)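 Seedlings grown for about two weeks were sprayed postemergence and then kept under standard greenhouse care. Injury was rated visually 4–5 weeks after treatment on a 0–9 scale against untreated controls, and ratings from repeat tests were averaged.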

[2] = test system: AMBEL (Ambrosia artemisifolia); assay: Postemergence herbicidal evaluation; assay type: in vivo, L.
Summary of the method: as §1

[3] = test system: CASOB (Cassia obtusifolia); assay: Postemergence herbicidal evaluation; assay type: in vivo, L.
Summary of the method: as §1

[4] = test system: CHEAL (Chenopodium album); assay: Postemergence herbicidal evaluation; assay type: in vivo, L.
Summary of the method: as §1

GALAP (Galium aparine) [5] = assay: Postemergence herbicidal evaluation; assay type: in vivo
Summary of the method: as §1

[6] = test system: IPOHE (Ipomoea hederacea); assay: Postemergence herbicidal evaluation; assay type: in vivo, (L.) Jacq.
Summary of the method: as §1

[7] = test system: GLXMAW (Soybean, Williams); assay: Postemergence herbicidal evaluation; assay type: in vivo, Glycine max, (L.) Merr. cv Williams
Summary of the method: as §1

ORYSAT (Rice, Tebonnet) [8] = assay: Postemergence herbicidal evaluation; assay type: in vivo, Oryza sativa, (L.) Tebonnet
Summary of the method: as §1

ZEAMX (Corn, Field) = assay: Postemergence herbicidal evaluation; assay type: in vivo, Zea mays, L.
Summary of the method: as §1

GALAP (Galium aparine) [9] = assay: Preemergence herbicidal evaluation; assay type: in vivo; conditions: preemergence, rated 4-5 weeks after treatment
Summary of the method: (§2)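 Test compound is applied in aqueous acetone to cups just after seeding. Cups are watered and maintained on greenhouse benches. Each cup is scored 0–9 by eye relative to a control after four to five weeks.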

[10] = test system: ECHCG (Echinochloa crus-galli); assay: Preemergence herbicidal evaluation; assay type: in vivo, (L.) Beau; conditions: preemergence, rated 4-5 weeks after treatment
Summary of the method: as §2

SETVI (Setaria viridis) = assay: Preemergence herbicidal evaluation; assay type: in vivo, (L.) Beau; conditions: preemergence, rated 4-5 weeks after treatment
Summary of the method: as §2

ORYSAT (Rice, Tebonnet) [11] = assay: Preemergence herbicidal evaluation; assay type: in vivo, Oryza sativa, (L.) Tebonnet; conditions: preemergence, rated 4-5 weeks after treatment
[12] = test system: TRZAWR (Wheat, Winter, cv Riband); assay: Preemergence herbicidal evaluation; assay type: in vivo, Triticum aestivum; conditions: preemergence, rated 4-5 weeks after treatment
Summary of the method: as §2

With Cc1ccc(-c2nsc3ccc(N4C(=O)C5=C(CCCC5)C4=O)cc23)s1 [Compound 20, N-[3-(5-methyl-2-thienyl)-1,2-benzisothiazol-5-yl]-1-cyclohexene-1,2-dicarboximide] the “Postemergence herbicidal rating, ABUTH” value ([1]; rate 0.0320 kg/ha) was 7.0, the “Postemergence herbicidal rating, ABUTH” value ([1]; rate 0.0620 kg/ha) was 9.0 and the “Postemergence herbicidal rating, ABUTH” value ([1]; rate 0.1250 kg/ha) was 9.0. For the same compound, the “Postemergence herbicidal rating, AMBEL” value ([2]; rate 0.0320 kg/ha) was 6.0, the “Postemergence herbicidal rating, AMBEL” value ([2]; rate 0.0620 kg/ha) was 6.0 and the “Postemergence herbicidal rating, AMBEL” value ([2]; rate 0.1250 kg/ha) was 9.0. The “Postemergence herbicidal rating, CASOB” value ([3]; rate 0.0320 kg/ha) was 1.0, the “Postemergence herbicidal rating, CASOB” value ([3]; rate 0.0620 kg/ha) was 1.0 and the “Postemergence herbicidal rating, CASOB” value ([3]; rate 0.1250 kg/ha) was 1.0. For the same compound, the “Postemergence herbicidal rating, CHEAL” value ([4]; rate 0.0320 kg/ha) was 3.0, the “Postemergence herbicidal rating, CHEAL” value ([4]; rate 0.0620 kg/ha) was 5.0 and the “Postemergence herbicidal rating, CHEAL” value ([4]; rate 0.1250 kg/ha) was 5.0. The “Postemergence herbicidal rating, GALAP” value (GALAP (Galium aparine) [5]; rate 0.0320 kg/ha) was 1.0, the “Postemergence herbicidal rating, GALAP” value (GALAP (Galium aparine) [5]; rate 0.0620 kg/ha) was 1.0 and the “Postemergence herbicidal rating, GALAP” value (GALAP (Galium aparine) [5]; rate 0.1250 kg/ha) was 1.0. For the same compound, the “Postemergence herbicidal rating, IPOHE” value ([6]; rate 0.0320 kg/ha) was 6.0, the “Postemergence herbicidal rating, IPOHE” value ([6]; rate 0.0620 kg/ha) was 9.0 and the “Postemergence herbicidal rating, IPOHE” value ([6]; rate 0.1250 kg/ha) was 9.0. The “Postemergence herbicidal rating, GLXMAW” value ([7]; rate 0.0320 kg/ha) was 5.5, the “Postemergence herbicidal rating, GLXMAW” value ([7]; rate 0.0620 kg/ha) was 5.5 and the “Postemergence herbicidal rating, GLXMAW” value ([7]; rate 0.1250 kg/ha) was 5.5. The “Postemergence herbicidal rating, ORYSAT” value (ORYSAT (Rice, Tebonnet) [8]; rate 0.0320 kg/ha) was 2.5, the “Postemergence herbicidal rating, ORYSAT” value (ORYSAT (Rice, Tebonnet) [8]; rate 0.0620 kg/ha) was 3.0 and the “Postemergence herbicidal rating, ORYSAT” value (ORYSAT (Rice, Tebonnet) [8]; rate 0.1250 kg/ha) was 4.5. The “Postemergence herbicidal rating, ZEAMX” value (ZEAMX (Corn, Field); rate 0.0320 kg/ha) was 5.0, the “Postemergence herbicidal rating, ZEAMX” value (ZEAMX (Corn, Field); rate 0.0620 kg/ha) was 5.0 and the “Postemergence herbicidal rating, ZEAMX” value (ZEAMX (Corn, Field); rate 0.1250 kg/ha) was 5.5. The “GALAP preemergence herbicidal rating” value (GALAP (Galium aparine) [9]; Rate 0.0620 kg/ha) was 0.0, the “GALAP preemergence herbicidal rating” value (GALAP (Galium aparine) [9]; Rate 0.1250 kg/ha) was 0.0 and the “GALAP preemergence herbicidal rating” value (GALAP (Galium aparine) [9]; Rate 0.2500 kg/ha) was 3.0. The “ECHCG preemergence herbicidal rating” value ([10]; Rate 0.0620 kg/ha) was 0.0, the “ECHCG preemergence herbicidal rating” value ([10]; Rate 0.1250 kg/ha) was 0.0 and the “ECHCG preemergence herbicidal rating” value ([10]; Rate 0.2500 kg/ha) was 0.0. For the same compound, the “SETVI preemergence herbicidal rating” value (SETVI (Setaria viridis); Rate 0.0620 kg/ha) was 0.0, the “SETVI preemergence herbicidal rating” value (SETVI (Setaria viridis); Rate 0.1250 kg/ha) was 0.0 and the “SETVI preemergence herbicidal rating” value (SETVI (Setaria viridis); Rate 0.2500 kg/ha) was 0.0. For the same compound, the “ORYSAT preemergence herbicidal rating” value (ORYSAT (Rice, Tebonnet) [11]; Rate 0.0620 kg/ha) was 0.0, the “ORYSAT preemergence herbicidal rating” value (ORYSAT (Rice, Tebonnet) [11]; Rate 0.1250 kg/ha) was 0.0 and the “ORYSAT preemergence herbicidal rating” value (ORYSAT (Rice, Tebonnet) [11]; Rate 0.2500 kg/ha) was 0.0. The “TRZAWR preemergence herbicidal rating” value ([12]; Rate 0.0620 kg/ha) was 0.0, the “TRZAWR preemergence herbicidal rating” value ([12]; Rate 0.1250 kg/ha) was 0.0 and the “TRZAWR preemergence herbicidal rating” value ([12]; Rate 0.2500 kg/ha) was 0.0.
With COC(=O)C(C)Oc1ccsc1-c1nsc2ccc(-n3c(=O)cc(C(F)(F)F)n(C)c3=O)cc12 (stereo not drawn) [Compound 23, methyl 2-[(2-[5-[3,6-dihydro-3-methyl-2,6-dioxo-4-(trifluoromethyl)-1(2H)-pyrimidinyl]-1,2-benzisothiazol-3-yl]-3-thienyl]oxy]propionate] the “Postemergence herbicidal rating, ABUTH” value ([1]; rate 0.0320 kg/ha) was 9.0, the “Postemergence herbicidal rating, ABUTH” value ([1]; rate 0.0620 kg/ha) was 9.0 and the “Postemergence herbicidal rating, ABUTH” value ([1]; rate 0.1250 kg/ha) was 9.0. The “Postemergence herbicidal rating, AMBEL” value ([2]; rate 0.0320 kg/ha) was 2.0, the “Postemergence herbicidal rating, AMBEL” value ([2]; rate 0.0620 kg/ha) was 6.0 and the “Postemergence herbicidal rating, AMBEL” value ([2]; rate 0.1250 kg/ha) was 9.0. The “Postemergence herbicidal rating, CASOB” value ([3]; rate 0.0320 kg/ha) was 0.0, the “Postemergence herbicidal rating, CASOB” value ([3]; rate 0.0620 kg/ha) was 0.0 and the “Postemergence herbicidal rating, CASOB” value ([3]; rate 0.1250 kg/ha) was 2.0. The “Postemergence herbicidal rating, CHEAL” value ([4]; rate 0.0320 kg/ha) was 2.0, the “Postemergence herbicidal rating, CHEAL” value ([4]; rate 0.0620 kg/ha) was 4.0 and the “Postemergence herbicidal rating, CHEAL” value ([4]; rate 0.1250 kg/ha) was 6.0. For the same compound, the “Postemergence herbicidal rating, GALAP” value (GALAP (Galium aparine) [5]; rate 0.0320 kg/ha) was 1.0, the “Postemergence herbicidal rating, GALAP” value (GALAP (Galium aparine) [5]; rate 0.0620 kg/ha) was 2.0 and the “Postemergence herbicidal rating, GALAP” value (GALAP (Galium aparine) [5]; rate 0.1250 kg/ha) was 2.0. For the same compound, the “Postemergence herbicidal rating, IPOHE” value ([6]; rate 0.0320 kg/ha) was 6.0, the “Postemergence herbicidal rating, IPOHE” value ([6]; rate 0.0620 kg/ha) was 5.0 and the “Postemergence herbicidal rating, IPOHE” value ([6]; rate 0.1250 kg/ha) was 9.0. The “Postemergence herbicidal rating, GLXMAW” value ([7]; rate 0.0320 kg/ha) was 4.0, the “Postemergence herbicidal rating, GLXMAW” value ([7]; rate 0.0620 kg/ha) was 5.0 and the “Postemergence herbicidal rating, GLXMAW” value ([7]; rate 0.1250 kg/ha) was 5.0. The “Postemergence herbicidal rating, ORYSAT” value (ORYSAT (Rice, Tebonnet) [8]; rate 0.0320 kg/ha) was 2.5, the “Postemergence herbicidal rating, ORYSAT” value (ORYSAT (Rice, Tebonnet) [8]; rate 0.0620 kg/ha) was 3.5 and the “Postemergence herbicidal rating, ORYSAT” value (ORYSAT (Rice, Tebonnet) [8]; rate 0.1250 kg/ha) was 5.0. For the same compound, the “Postemergence herbicidal rating, ZEAMX” value (ZEAMX (Corn, Field); rate 0.0320 kg/ha) was 5.0, the “Postemergence herbicidal rating, ZEAMX” value (ZEAMX (Corn, Field); rate 0.0620 kg/ha) was 6.5 and the “Postemergence herbicidal rating, ZEAMX” value (ZEAMX (Corn, Field); rate 0.1250 kg/ha) was 7.0. For the same compound, the “GALAP preemergence herbicidal rating” value (GALAP (Galium aparine) [9]; Rate 0.0620 kg/ha) was 0.0, the “GALAP preemergence herbicidal rating” value (GALAP (Galium aparine) [9]; Rate 0.1250 kg/ha) was 0.0 and the “GALAP preemergence herbicidal rating” value (GALAP (Galium aparine) [9]; Rate 0.2500 kg/ha) was 1.0. For the same compound, the “ECHCG preemergence herbicidal rating” value ([10]; Rate 0.0620 kg/ha) was 0.0, the “ECHCG preemergence herbicidal rating” value ([10]; Rate 0.1250 kg/ha) was 0.0 and the “ECHCG preemergence herbicidal rating” value ([10]; Rate 0.2500 kg/ha) was 1.0. The “SETVI preemergence herbicidal rating” value (SETVI (Setaria viridis); Rate 0.0620 kg/ha) was 0.0, the “SETVI preemergence herbicidal rating” value (SETVI (Setaria viridis); Rate 0.1250 kg/ha) was 0.0 and the “SETVI preemergence herbicidal rating” value (SETVI (Setaria viridis); Rate 0.2500 kg/ha) was 1.0. For the same compound, the “ORYSAT preemergence herbicidal rating” value (ORYSAT (Rice, Tebonnet) [11]; Rate 0.0620 kg/ha) was 0.0, the “ORYSAT preemergence herbicidal rating” value (ORYSAT (Rice, Tebonnet) [11]; Rate 0.1250 kg/ha) was 0.0 and the “ORYSAT preemergence herbicidal rating” value (ORYSAT (Rice, Tebonnet) [11]; Rate 0.2500 kg/ha) was 0.0. For the same compound, the “TRZAWR preemergence herbicidal rating” value ([12]; Rate 0.0620 kg/ha) was 0.0, the “TRZAWR preemergence herbicidal rating” value ([12]; Rate 0.1250 kg/ha) was 0.0 and the “TRZAWR preemergence herbicidal rating” value ([12]; Rate 0.2500 kg/ha) was 0.0.

— patent publication US6706663B2, “Herbicidal 3-heterocyclic substituted benzisothiazole and benzisoxazole compounds” (Wyeth, priority 2000, dated 2004)
